Source: patent publication US12570639B2, “Tetrahydroquinoline derivative and medicinal use thereof” (Toray Industries, Inc., priority 2020, dated 2026)

tested on: Human fibrosarcoma cells (HT-1080 cells); assay: In vitro inhibitory action against ferroptosis (Erastin-induced cell death, Cell Counting Kit-8); format: cell-based; conditions: evaluation concentration 25 μmol/L, Erastin 3 μmol/L, 24 hours
Method: The inhibitory action against ferroptosis of the tetrahydroquinoline derivative (I) or a pharmaceutically acceptable salt thereof was evaluated with Human fibrosarcoma cells (HT-1080 cells), by using, as an index, the inhibitory action against the cell death induced by treatment with a ferroptosis inducer, Erastin.
HT-1080 cells (ATCC) were cultured in a mixture (hereinafter referred to as vehicle) composed of DMEM/F12 (Thermo Fisher Scientific, Inc.), a final concentration of 10% fetal bovine serum (Thermo Fisher Scientific, Inc.), and a final concentration of 1% penicillin-streptomycin solution (Nacalai Tesque, Inc.). Cells were seeded into 96-well plates (Corning Inc.) at 5×10^4 cells/well and cultured overnight.
A test compound was dissolved in DMSO, and the resulting solution was diluted in the vehicle to a final concentration of 1% DMSO and then used. […] Thirty minutes after the addition of the test compound, Erastin (Cayman Chemical Co.) diluted in the vehicle at a final concentration of 3 μmol/L was added to wells. The wells added with the test compound and Erastin were grouped as “test compound,” and the wells added with no test compound and no Erastin were grouped as “background,” and the wells added with no test compound but with Erastin were grouped as “control.” Twenty-four hours after the addition of Erastin, 5 μL of Cell Counting Kit-8 (Dojindo Laboratories) was added to each well and incubated for 4 hours, and the absorbance at 450 nm was then measured for each well (N=2). […] Ferroptosis inhibition rate (%)=[1−{(Average absorbance value at 450 nm measured when a test compound is added)−(Average absorbance value at 450 nm measured in the background)}/{(Average absorbance value at 450 nm measured in the control)−(Average absorbance value at 450 nm measured in the background)}]×100 Equation 1

SMILES	Ferroptosis inhibition rate (%)
CC(C)(C)CC(=O)Nc1ccc2c(c1)CCC(c1ccccc1)N2 (stereo not shown) [Example 78, 3,3-dimethyl-N-(2-phenyl-1,2,3,4-tetrahydroquinolin-6-yl)butanamide]	88.56

same assay, conditions: evaluation concentration 30 μmol/L, Erastin 3 μmol/L, 24 hours

SMILES	Ferroptosis inhibition rate (%)
NS(=O)(=O)c1ccccc1C1CCc2ccccc2N1 (stereo not shown) [Example 20, 2-(1,2,3,4-tetrahydroquinolin-2-yl)benzenesulfonamide]	95.88
OCc1cccc(C2CCc3ccccc3N2)c1 (stereo not shown) [Example 48, (3-(1,2,3,4-tetrahydroquinolin-2-yl)phenyl)methanol]	81.80
CC1(c2ccccc2)CCc2ccccc2N1 (stereo not shown) [Example 91, 2-methyl-2-phenyl-1,2,3,4-tetrahydroquinoline]	105.2
CC(C)(C)CC(=O)Nc1ccc2c(c1)CCC(c1ccccc1)N2 (stereo not shown) [Example 129, 3,3-dimethyl-N-(2-phenyl-1,2,3,4-tetrahydroquinolin-6-yl)butanamide]	88.31
CC(C)(O)c1ccc2c(c1)CCC(c1ccccc1)N2 (stereo not shown) [Example 57, 2-(2-phenyl-1,2,3,4-tetrahydroquinolin-6-yl)propan-2-ol]	89.18
CN1C(=O)CCc2cc(C3CCc4ccccc4N3)ccc21 (stereo not shown) [Example 24, 1′-methyl-1,2,3,3′,4,4′-hexahydro-[2,6′-biquinolin]-2′(1′H)-one]	59.67
Oc1ccc2c(c1)CCC(c1ccccc1)N2 (stereo not shown) [Example 55, 2-phenyl-1,2,3,4-tetrahydroquinolin-6-ol]	93.72
CCNC(=O)c1ccc(C2CCc3ccccc3N2)cc1 (stereo not shown) [Example 40, N-ethyl-4-(1,2,3,4-tetrahydroquinolin-2-yl)benzamide]	111.1
CC(C)(O)c1ccc(C2CCc3ccccc3N2)cc1 (stereo not shown) [Example 18, 2-(4-(1,2,3,4-tetrahydroquinolin-2-yl)phenyl)propan-2-ol]	66.52
O=C1Cc2cc(C3CCc4cc(Cl)ccc4N3)ccc2N1 (stereo not shown) [Example 95, 5-(6-chloro-2,3,4,4-tetrahydroquinolin-2-yl)indolin-2-one]	68.84
NC(=O)c1cccc(C2CCc3ccccc3N2)c1 (stereo not shown) [Example 46, 3-(1,2,3,4-tetrahydroquinolin-2-yl)benzamide]	109.0
Cc1ccc2c(c1)CCC(c1cscn1)N2 (stereo not shown) [Example 103, 4-(6-methyl-1,2,3,4-tetrahydroquinolin-2-yl)thiazole]	76.76
Fc1ccc2c(c1)CCC(c1cn[nH]c1)N2 (stereo not shown) [Example 98, 6-fluoro-2-(1H-pyrazol-4-yl)-1,2,3,4-tetrahydroquinoline]	98.95
N#Cc1cccc(C2CCc3ccccc3N2)c1 (stereo not shown) [Example 45, 3-(1,2,3,4-tetrahydroquinolin-2-yl)benzonitrile]	109.1
c1ccc2c(c1)CCC(c1cc[nH]n1)N2 (stereo not shown) [Example 22, 2-(1H-pyrazol-3-yl)-1,2,3,4-tetrahydroquinoline]	103.2
CC(C)c1ccc2c(c1)CCC(c1ccccc1)N2 (stereo not shown) [Example 54, 6-isopropyl-2-phenyl-1,2,3,4-tetrahydroquinoline]	109.9
O=C1CCc2cc(C3CCc4ccc(F)cc4N3)ccc2N1 (stereo not shown) [Example 139, 7-fluoro-1,2,3,3′,4,4′-hexahydro-[2,6′-biquinolin]-2′(1′H)-one]	60.63
CC(C)(C)CC(=O)Nc1ccc2c(c1)CCC(c1ccccc1)N2 (stereo not shown) [Example 130, 3,3-dimethyl-N-(2-phenyl-1,2,3,4-tetrahydroquinolin-6-yl)butanamide]	104.2

SMILES	Ferroptosis inhibition rate (%)
CC(=O)Nc1ccc(C2CNc3ccccc3C2)cc1 (stereo not shown) [Example 168, N-(4-(1,2,3,4-tetrahydroquinolin-3-yl)phenyl)acetamide]	86.46
CC(C)(C)NC(=O)Nc1ccc2c(c1)CCC(c1ccccc1)N2 (stereo not shown) [Example 128, 1-(tert-butyl)-3-(2-phenyl-1,2,3,4-tetrahydroquinolin-6-yl)urea]	91.83
Clc1cccc2c1NC(c1ccccc1)CC2 (stereo not shown) [Example 79, 8-chloro-2-phenyl-1,2,3,4-tetrahydroquinoline]	104.4
O=C(c1ccc(C2CCc3ccccc3N2)cc1)N1CCOCC1 (stereo not shown) [Example 42, morpholino(4-(1,2,3,4-tetrahydroquinolin-2-yl)phenyl)methanone]	98.89
CCN(CC)C(=O)c1ccc(C2CCc3ccccc3N2)cc1 (stereo not shown) [Example 39, N,N-diethyl-4-(1,2,3,4-tetrahydroquinolin-2-yl)benzamide]	101.5
Cc1ccc2c(c1)CCC(c1ccc(S(N)(=O)=O)cc1)N2 (stereo not shown) [Example 100, 4-(6-methyl-1,2,3,4-tetrahydroquinolin-2-yl)benzenesulfonamide]	103.5
Fc1cccc2c1NC(c1ccccc1)CC2 (stereo not shown) [Example 80, 8-fluoro-2-phenyl-1,2,3,4-tetrahydroquinoline]	103.9
O=C1NCc2cc(C3CCc4ccccc4N3)ccc21 (stereo not shown) [Example 124, 5-(1,2,3,4-tetrahydroquinolin-2-yl)isoindolin-1-one]	106.3
NS(=O)(=O)c1ccc(C2CNc3ccccc3C2)cc1 (stereo not shown) [Example 167, 4-(1,2,3,4-tetrahydroquinolin-3-yl)benzenesulfonamide]	76.82
Cc1ccc2c(c1)CCC(c1ccc3c(c1)CCC(=O)N3)N2 (stereo not shown) [Example 101, 6-methyl-1,2,3,3′,4,4′-hexahydro-[2,6′-biquinolin]-2′(1′H)-one]	109.6
O=C(Cc1ccc2c(c1)CCC(c1ccccc1)N2)N1CCCC1 (stereo not shown) [Example 156, 2-(2-phenyl-1,2,3,4-tetrahydroquinolin-6-yl)-1-(pyrrolidin-1-yl)ethan-1-one]	57.76
O=C(Cc1ccc2c(c1)CCC(c1ccccc1)N2)NCC1CC1 (stereo not shown) [Example 153, N-(cyclopropylmethyl)-2-(2-phenyl-1,2,3,4-tetrahydroquin-olin-6-yl)acetamide]	110.1
O=C(Cc1ccc2c(c1)CCC(c1ccccc1)N2)NCC1COC1 (stereo not shown) [Example 154, N-(oxetan-3-ylmethyl)-2-(2-phenyl-1,2,3,4-tetrahydroquin-olin-6-yl)acetamide]	114.6
COC(=O)CC1(c2ccccc2)CCc2ccccc2N1 (stereo not shown) [Example 94, 2-(2-phenyl-1,2,3,4-tetrahydroquinolin-2-yl)methyl acetate]	93.68
CS(=O)(=O)Nc1ccc2c(c1)CCC(c1ccccc1)N2 (stereo not shown) [Example 75, N-(2-phenyl-1,2,3,4-tetrahydroquinolin-6-yl)methanesulfonamide]	110.6
O=C1CCc2cc(C3CCc4cc(F)ccc4N3)ccc2N1 (stereo not shown) [Example 133, 6-fluoro-1,2,3,3′,4,4′-hexahydro-[2,6′-biquinolin]-2′(1′H)-one]	98.54
OC[C@@H]1C[C@H](c2ccccc2)Nc2ccccc21 (relative stereo) [Example 89, ((2R*,4R*)-2-phenyl-1,2,3,4-tetrahydroquinolin-4-yl)methanol]	99.12

same assay, conditions: evaluation concentration 50 μmol/L, Erastin 3 μmol/L, 24 hours

SMILES	Ferroptosis inhibition rate (%)
FC(F)(F)c1ccccc1C1CCc2ccccc2N1 (stereo not shown) [Example 10, 2-(2-(trifluoromethyl)phenyl)-1,2,3,4-tetrahydroquinoline]	103.9
OCc1cccc2c1CCC(c1ccccc1)N2 (stereo not shown) [Example 51, (2-phenyl-1,2,3,4-tetrahydroquinolin-5-yl)methanol]	84.55
COc1ccc2c(c1)CCC(c1ccc3c(c1)OCO3)N2 (stereo not shown) [Example 7, 2-(benzo[d][1,3]dioxol-5-yl)-6-methoxy-1,2,3,4-tetrahydro-quinoline]	93.95
OCc1ccc2c(c1)NC(c1ccccc1)CC2 (stereo not shown) [Example 52, (2-phenyl-1,2,3,4-tetrahydroquinolin-7-yl)methanol]	74.96
COc1ccc(C2CCc3ccc(OC)cc3N2)cc1 (stereo not shown) [Example 8, 7-methoxy-2-(4-methoxyphenyl)-1,2,3,4-tetrahydroquinoline]	100.6
FC(F)(F)c1cccc(C2CCc3ccccc3N2)c1 (stereo not shown) [Example 30, 2-(3-(trifluoromethyl)phenyl)-1,2,3,4-tetrahydroquinoline]	83.09
COc1ccccc1C1CCc2ccccc2N1 (stereo not shown) [Example 6, 2-(2-methoxyphenyl)-1,2,3,4-tetrahydroquinoline]	90.22
c1ccc(C2CNc3ccccc3C2)cc1 (stereo not shown) [Example 162, 3-phenyl-1,2,3,4-tetrahydroquinoline]	108.4
c1ccc(C2CCc3ccccc3N2)nc1 (stereo not shown) [Example 53, 2-(pyridin-2-yl)-1,2,3,4-tetrahydroquinoline]	111.3
COC(=O)c1ccc(C2CCc3ccccc3N2)cc1 (stereo not shown) [Example 17, methyl 4-(1,2,3,4-tetrahydroquinolin-2-yl)benzoate]	98.12
